Row | Structure (SMILES) | melting point [°C]
1 | C[C@@]12CC[C@H](O)C[C@H]1CC[C@@H]1C[C@@]3(C)[C@@H](CC[C@@]34CO4)C[C@H]12 | 138 to 140
2 | C[C@]12C[C@H]3CC[C@@H]4C[C@@H](O)CC[C@@]4(C)[C@@H]3C[C@@H]1CC[C@@H]2C#N | 145 to 147
3 | C[C@@]12C[C@@H]3CC[C@H]4C[C@H](O)CC[C@@H]4[C@H]3C[C@H]1CC[C@H]2C#N | 163 to 165
4 | CC(=O)[C@@H]1CC[C@@H]2C[C@H]3[C@@H](CC[C@H]4C[C@H](O)CC[C@@H]43)C[C@]21C | 128 to 130
5 | C[C@@]12CC[C@H](O)C[C@H]1CC[C@@H]1C[C@]3(C)C(C#N)=CC[C@H]3C[C@H]12 (stereo in doubt) | 170 to 172

Second part, the compound after the results:

Row | melting point [°C] | Structure (SMILES)
6 | 175 to 177 | C[C@]12C[C@H]3CC[C@H]4C[C@@H](O)CC[C@H]4[C@@H]3C[C@@H]1CCC2=O
7 | 165 to 167 | C[C@@]12C[C@@H]3CC[C@H]4C[C@H](O)CC[C@@H]4[C@H]3C[C@H]1CC[C@]21CO1
8 | 174 to 176 | C[C@@]12C[C@@H]3CC[C@@H]4C[C@H](O)CC[C@@H]4[C@H]3C[C@H]1CCC2=O (stereo in doubt)
